Measurements published in ChEMBL document CHEMBL5370585, “Exploration and Biological Evaluation of 1,3-Diamino-7H-pyrrol[3,2-f]quinazoline Derivatives as Dihydrofolate Reductase Inhibitors” (J Med Chem, 2023).
Converted amounts (≈) assume the structure as drawn. The source made the active and inactive calls. The rule behind the calls is not given here.

Experiments:
Staphylococcus aureus [1] = assay: Antibacterial activity against Staphylococcus aureus ATCC 29213 incubated for 16 to 18 hrs by CLSI based broth dilution method; assay type: functional; settings: time 16-18 hrs
Staphylococcus aureus [2] = assay: Antibacterial activity against methicillin-resistant Staphylococcus aureus ATCC 43300 incubated for 16 to 18 hrs by CLSI based broth dilution method; assay type: functional; settings: time 16-18 hrs
[3] = system: Staphylococcus epidermidis; assay: Antibacterial activity against Staphylococcus epidermidis ATCC 12228 incubated for 16 to 18 hrs by CLSI based broth dilution method; assay type: functional; settings: time 16-18 hrs
Acinetobacter baumannii [4] = assay: Antibacterial activity against Acinetobacter baumannii ATCC 19606 incubated for 16 to 18 hrs by CLSI based broth dilution method; assay type: functional; settings: time 16-18 hrs
Enterococcus faecalis [5] = assay: Antibacterial activity against Enterococcus faecalis ATCC 29212 incubated for 16 to 18 hrs by CLSI based broth dilution method; assay type: functional; settings: time 16-18 hrs
Escherichia coli [6] = assay: Antibacterial activity against Escherichia coli ATCC 25922 incubated for 16 to 18 hrs by CLSI based broth dilution method; assay type: functional; settings: time 16-18 hrs
Escherichia coli [7] = assay: Antibacterial activity against Escherichia coli ATCC 25922 assessed as inhibition of bacterial growth at upto 8 times MIC measured upto 28 hrs by time kill curve assay; assay type: functional, organism-based
Staphylococcus aureus [8] = assay: Antibacterial activity against methicillin-resistant Staphylococcus aureus ATCC 43300 assessed as inhibition of bacterial growth at upto 8 times MIC measured upto 28 hrs by time kill curve assay; assay type: functional, organism-based
Staphylococcus aureus [9] = assay: Antibacterial activity against methicillin-sensitive Staphylococcus aureus 15-1 incubated for 16 to 18 hrs by CLSI based broth dilution method; assay type: functional; settings: time 16-18 hrs
Staphylococcus aureus [10] = assay: Antibacterial activity against methicillin-sensitive Staphylococcus aureus 15-2 incubated for 16 to 18 hrs by CLSI based broth dilution method; assay type: functional; settings: time 16-18 hrs
Staphylococcus aureus [11] = assay: Antibacterial activity against methicillin-sensitive Staphylococcus aureus ATCC 29213 incubated for 16 to 18 hrs by CLSI based broth dilution method; assay type: functional; settings: time 16-18 hrs
Staphylococcus aureus [12] = assay: Antibacterial activity against methicillin-sensitive Staphylococcus aureus ATCC 25923 incubated for 16 to 18 hrs by CLSI based broth dilution method; assay type: functional; settings: time 16-18 hrs
Staphylococcus aureus [13] = assay: Antibacterial activity against methicillin-resistant Staphylococcus aureus ATCC 33591 incubated for 16 to 18 hrs by CLSI based broth dilution method; assay type: functional; settings: time 16-18 hrs
Staphylococcus aureus [14] = assay: Antibacterial activity against vancomycin intermediate Staphylococcus aureus ATCC 700788 incubated for 16 to 18 hrs by CLSI based broth dilution method; assay type: functional; settings: time 16-18 hrs
Staphylococcus aureus [15] = assay: Antibacterial activity against vancomycin intermediate Staphylococcus aureus ATCC 700699 incubated for 16 to 18 hrs by CLSI based broth dilution method; assay type: functional; settings: time 16-18 hrs
Enterococcus faecalis [16] = assay: Antibacterial activity against Enterococcus faecalis EFA19-1 incubated for 16 to 18 hrs by CLSI based broth dilution method; assay type: functional; settings: time 16-18 hrs
Enterococcus faecalis [17] = assay: Antibacterial activity against Enterococcus faecalis EFA19-2 incubated for 16 to 18 hrs by CLSI based broth dilution method; assay type: functional; settings: time 16-18 hrs
Enterococcus = assay: Antibacterial activity against Vancomycin-resistant Enterococcus ATCC 51575 incubated for 16 to 18 hrs by CLSI based broth dilution method; assay type: functional; settings: time 16-18 hrs
Escherichia coli [18] = assay: Antibacterial activity against Escherichia coli ATCC BAA-2340 incubated for 16 to 18 hrs by CLSI based broth dilution method; assay type: functional; settings: time 16-18 hrs
Escherichia coli [19] = assay: Antibacterial activity against Escherichia coli ECO 15-1 incubated for 16 to 18 hrs by CLSI based broth dilution method; assay type: functional; settings: time 16-18 hrs
Klebsiella pneumoniae [20] = assay: Antibacterial activity against Klebsiella pneumoniae 15-1 assessed as reduction in microbial growth incubated for 16 to 18 hrs by CLSI based broth dilution method; assay type: functional; settings: time 16-18 hrs
Klebsiella pneumoniae [21] = assay: Antibacterial activity against Klebsiella pneumoniae ATCC 700603 assessed as reduction in microbial growth incubated for 16 to 18 hrs by CLSI based broth dilution method; assay type: functional; settings: time 16-18 hrs
Acinetobacter baumannii [22] = assay: Antibacterial activity against Acinetobacter baumannii ATCC 19606 assessed as reduction in microbial growth incubated for 16 to 18 hrs by CLSI based broth dilution method; assay type: functional; settings: time 16-18 hrs
Acinetobacter baumannii [23] = assay: Antibacterial activity against Acinetobacter baumannii 20-1 incubated for 16 to 18 hrs by CLSI based broth dilution method; assay type: functional; settings: time 16-18 hrs
Acinetobacter baumannii [24] = assay: Antibacterial activity against Acinetobacter baumannii 20-2 incubated for 16 to 18 hrs by CLSI based broth dilution method; assay type: functional; settings: time 16-18 hrs
Pseudomonas aeruginosa = assay: Antibacterial activity against Pseudomonas aeruginosa ATCC 27853 incubated for 16 to 18 hrs by CLSI based broth dilution method; assay type: functional; settings: time 16-18 hrs
Staphylococcus aureus [25] = assay: Antibacterial activity against Staphylococcus aureus ATCC 29213 incubated for 16 to 18 hrs in absence of human plasma by CLSI based broth dilution method; assay type: functional; settings: time 16-18 hrs
Staphylococcus aureus [26] = assay: Antibacterial activity against Staphylococcus aureus ATCC 29213 incubated for 16 to 18 hrs in presence of human plasma by CLSI based broth dilution method; assay type: functional; settings: time 16-18 hrs
Staphylococcus aureus [27] = assay: Antibacterial activity against methicillin-resistant Staphylococcus aureus ATCC 43300 incubated for 16 to 18 hrs in absence of human plasma by CLSI based broth dilution method; assay type: functional; settings: time 16-18 hrs
Staphylococcus aureus [28] = assay: Antibacterial activity against methicillin-resistant Staphylococcus aureus ATCC 43300 incubated for 16 to 18 hrs in presence of human plasma by CLSI based broth dilution method; assay type: functional; settings: time 16-18 hrs
Escherichia coli [29] = assay: Antibacterial activity against Escherichia coli ATCC 25922 incubated for 16 to 18 hrs in absence of human plasma by CLSI based broth dilution method; assay type: functional; settings: time 16-18 hrs
Escherichia coli [30] = assay: Antibacterial activity against Escherichia coli ATCC 25922 incubated for 16 to 18 hrs in presence of human plasma by CLSI based broth dilution method; assay type: functional; settings: time 16-18 hrs
[31] = biological target: T1, Dihydrofolate reductase (Homo sapiens) (UniProt P00374); assay: Inhibition of human DHFR at 1 uM incubated for 10 mins in presence of NADPH by colorimetry based analysis relative to control
T1 sequence (whole entry): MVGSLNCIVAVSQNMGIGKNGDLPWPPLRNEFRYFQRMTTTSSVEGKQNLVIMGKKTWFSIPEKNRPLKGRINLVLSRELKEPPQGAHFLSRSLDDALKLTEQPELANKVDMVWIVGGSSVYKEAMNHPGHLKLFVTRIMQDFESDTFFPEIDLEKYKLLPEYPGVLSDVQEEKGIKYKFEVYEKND

MCF7 = assay: Cytotoxicity against human MCF7 cells measured after 72 hrs by MTT assay; assay type: functional, cell-based; settings: MCF7, 72 h
HGC-27 = assay: Cytotoxicity against human HGC-27 cells measured after 72 hrs by MTT assay; assay type: functional, cell-based; settings: HGC-27, 72 h
HCT-116 = assay: Cytotoxicity against human HCT-116 cells measured after 72 hrs by MTT assay; assay type: functional, cell-based; settings: HCT-116, 72 h
HepG2 = assay: Cytotoxicity against human HepG2 cells measured after 72 hrs by MTT assay; assay type: functional, cell-based; settings: HepG2, 72 h
EMT6 [32] = assay: Antitumor activity against mouse EMT6 cells xenografted in ip dosed BALB/c mouse model assessed as delay in tumor progression administered every 3 days for 14 consecutive days; assay type: functional, organism-based; settings: time 14.0 day
[33] = Toxicity in BALB/c mouse xenografted with mouse EMT6 cells at 5 mg/kg, ip administered every 3 days for 14 consecutive days; assay type: organism-based; settings: in vivo, 336 h, time 14 day
[34] = Toxicity in BALB/c mouse xenografted with mouse EMT6 cells assessed as effect on body weight at 5 mg/kg, ip measured on day 1 (reference value: 18.5 +/-0.5g); assay type: organism-based; settings: in vivo, 24 h, time 1 day
[35] = Toxicity in BALB/c mouse xenografted with mouse EMT6 cells assessed as effect on body weight at 10 mg/kg, ip measured on day 1 (reference value: 18.5 +/-0.5g); assay type: organism-based; settings: in vivo, 24 h, time 1 day
[36] = Toxicity in BALB/c mouse xenografted with mouse EMT6 cells assessed as effect on body weight at 5 mg/kg, ip measured on day 14 (reference value: 21.6 +/-0.6g); assay type: organism-based; settings: in vivo, 336 h, time 14 day
[37] = Toxicity in BALB/c mouse xenografted with mouse EMT6 cells assessed as effect on body weight at 10 mg/kg, ip measured on day 14 (reference value: 21.6 +/-0.6g); assay type: organism-based; settings: in vivo, 336 h, time 14 day
EMT6 [38] = assay: Antitumor activity against mouse EMT6 cells xenografted in BALB/c mouse model assessed as tumor weight at 5 mg/kg,ip administered every 3 days for 14 consecutive days (reference value: 1.53 +/-0.26g); assay type: functional; settings: time 14 day
EMT6 [39] = assay: Antitumor activity against mouse EMT6 cells xenografted in BALB/c mouse model assessed as tumor weight at 10 mg/kg,ip administered every 3 days for 14 consecutive days (reference value: 1.53 +/-0.26g); assay type: functional; settings: time 14 day
EMT6 [40] = assay: Antitumor activity against mouse EMT6 cells xenografted in BALB/c mouse model assessed as tumor growth inhibition at 5 mg/kg,ip administered every 3 days for 14 consecutive days relative to control; assay type: functional; set-up: scale not given: the % may be the effect or the level left; settings: time 14 day
EMT6 [41] = assay: Antitumor activity against mouse EMT6 cells xenografted in BALB/c mouse model assessed as tumor growth inhibition at 10 mg/kg,ip administered every 3 days for 14 consecutive days relative to control; assay type: functional; set-up: scale not given: the % may be the effect or the level left; settings: time 14 day

## Nc1nc(N)c2c(ccc3c2ccn3Cc2nc3ccccc3s2)n1
Staphylococcus aureus [1]
  MIC: 0.06 µg/mL (≈ 0.173 µM)
Staphylococcus aureus [2]
  MIC: 0.016 µg/mL (≈ 0.0462 µM)
[3]
  MIC: ≤ 0.004 µg/mL
Acinetobacter baumannii [4]
  MIC: 1 µg/mL (≈ 2.89 µM)
Enterococcus faecalis [5]
  MIC: ≤ 0.004 µg/mL
Escherichia coli [6]
  MIC: 0.03 µg/mL (≈ 0.0866 µM)
Escherichia coli [7]
  Activity: Active
Staphylococcus aureus [8]
  Activity: Active
Staphylococcus aureus [9]
  MIC: ≤ 0.03 µg/mL
Staphylococcus aureus [10]
  MIC: ≤ 0.03 µg/mL
Staphylococcus aureus [11]
  MIC: ≤ 0.03 µg/mL
Staphylococcus aureus [12]
  MIC: 0.06 µg/mL (≈ 0.173 µM)
Staphylococcus aureus [13]
  MIC: ≤ 0.03 µg/mL
Staphylococcus aureus [14]
  MIC: ≤ 0.03 µg/mL
Staphylococcus aureus [15]
  MIC: 0.25 µg/mL (≈ 0.722 µM)
Enterococcus faecalis [16]
  MIC: ≤ 0.03 µg/mL
Enterococcus faecalis [17]
  MIC: ≤ 0.03 µg/mL
Enterococcus
  MIC: ≤ 0.03 µg/mL
Escherichia coli [18]
  MIC: > 64 µg/mL
Escherichia coli [19]
  MIC: > 64 µg/mL
Klebsiella pneumoniae [20]
  MIC: 2 µg/mL
Klebsiella pneumoniae [21]
  MIC: 2 µg/mL
Acinetobacter baumannii [22]
  MIC: 1 µg/mL
Acinetobacter baumannii [23]
  MIC: 16 µg/mL (≈ 46.2 µM)
Acinetobacter baumannii [24]
  MIC: 1 µg/mL (≈ 2.89 µM)
Pseudomonas aeruginosa
  MIC: > 64 µg/mL
Staphylococcus aureus [25]
  MIC: 0.06 µg/mL (≈ 0.173 µM)
Staphylococcus aureus [26]
  MIC: 2 µg/mL
Staphylococcus aureus [27]
  MIC: 0.016 µg/mL (≈ 0.0462 µM)
Staphylococcus aureus [28]
  MIC: 1 µg/mL
Escherichia coli [29]
  MIC: 0.03 µg/mL (≈ 0.0866 µM)
Escherichia coli [30]
  MIC: 1 µg/mL
[31]
  inhibition: 96%
MCF7
  IC50: 110 nM
HGC-27
  IC50: 1 nM
HCT-116
  IC50: 2 nM
HepG2
  IC50: 34 nM
EMT6 [32]
  Activity: Dose-Dependent Effect
[33]
  Activity: Non-Toxic
[34]
  Activity: 18.5 g
[35]
  Activity: 18.6 g
[36]
  Activity: 15.1 g
[37]
  Activity: 14.3 g
EMT6 [38]
  Activity: 0.41 g
EMT6 [39]
  Activity: 0.44 g
EMT6 [40]
  Activity: 72.9%
EMT6 [41]
  Activity: 71.1%
